Assay results from patent publication US8445006B2, “Biomolecular coating for implants” (Georgia Tech Research Corporation, priority 2006, dated 2013).

Assays:
MC3T3-E1 cells = experiment: Centrifugation cell adhesion assay on ligand-tethered SAMs; assay type: cell-based, murine
Procedure: MC3T3-E1 murine immature osteoblast-like cells (Riken Cell Bank, Hirosawa, Japan) were used because of their expression of multiple integrins, including alpha5beta1, alpha2beta1, and alphaVbeta3. Cells were maintained at 37° C. in α-MEM supplemented with 10% FBS and 1% penicillin-streptomycin and passaged every 2-3 days via standard culture techniques.
Self-assembled monolayers (SAMs) of alkanethiols on gold were used to present well-defined, ordered surfaces with anchoring groups within a non-fouling background. Tri(ethylene glycol)-terminated alkanethiol (HS—(CH2)11—(OCH2CH2)3—OH; EG3) and carboxylic acid-terminated alkanethiol (HS—(CH2)11—(OCH2CH2)6—OCH2COOH; EG6-COOH) were previously synthesized and characterized. Gold-coated substrates were prepared by sequential deposition of titanium (100 Å) and gold (200 Å) films via an electron beam evaporator (Thermionics Laboratories, Hayward, Calif., 2×10^−6 Torr, 1 A/s) onto clean 6-well plate lids or glass coverslips. Mixed SAM surfaces were prepared on substrates by immersing in a 1.0 mM mixed solution of EG3/EG6-COOH thiols (4 h). Peptide ligands were tethered using standard peptide chemistry. Briefly, following washing in ethanol and ultrapure H2O, SAMs were incubated in 2.0 mM EDC and 5.0 mM NHS in 0.1 M 2-(N-morpho)-ethanesulfonic acid and 0.5 M NaCl (pH 6.0), and subsequently immersed in a 20 mM solution of 2-mercaptoethanol in deionized H2O. Adhesive ligands in PBS were then incubated on the activated supports for 30 min and the unreacted surface NHS esters were then quenched in 20 mM glycine. Finally, the surfaces were blocked in 1% heat-denatured bovine serum albumin (BSA) and then incubated overnight in DPBS to reduce nonspecific protein adsorption.
A modification of a centrifugation assay was used to apply controlled detachment forces to cells adhering to engineered surfaces. Multi-wells of engineered surfaces were created on gold-coated polystyrene plate lids using silicone gaskets (Grace Bio-Labs, Bend, Oreg.). Mixed SAMs were assembled and ligands tethered at varying densities. MC3T3-E1 cells were labeled with […] calcein-AM, a membrane-permeable green fluorescent dye, in 2 mM dextrose-DPBS for 30 min and resuspended in α-MEM with 10% FBS. Cells were seeded onto the surfaces at 200 cells/mm^2, and allowed to attach for 1 h at 37° C. For blocking antibody experiments, cells were incubated in the presence of function-perturbing antibodies (10 μg/ml) for 10 min with gentle agitation prior to cell seeding. Before centrifugation, cell images were taken using a Nikon TE-300 fluorescence microscope and Spot RT digital camera. Wells were then filled completely with dextrose-PBS, sealed, inverted, and centrifuged for 5 min at a prescribed speed on a Beckman Allegra 6 centrifuge (GH 3.8 rotor) to apply normal detachment forces. Media was then gently aspirated from the wells, and wells were refilled for post-spin image collection. Post/pre-spin cell ratios were determined by image analysis, and this adhesive fraction was plotted against ligand surface density to obtain cell adhesion profiles.

[1] = tested on: HFN7.1 monoclonal antibody; experiment: ELISA with HFN7.1 monoclonal antibody; assay type: binding; details: passively adsorbed ligands, various coating concentrations
Procedure: An ELISA was used to probe for the biological activity of the FNIII7-10 fragment compared to pFN. FNIII7-10 or pFN was adsorbed onto either uncoated or Neutravidin-coated (100 μg/ml) 96-well black U-well Dynex plates at various concentrations for 30 min. Following incubation in blocking buffer (0.25% BSA, 0.1 M EDTA, 2.5% Tween-20, 0.00125% NaN3), HFN7.1 antibody (0.6 μg/ml in blocking buffer) was added for 1 h at 37° C., and, after washing with blocking buffer, surfaces were incubated in alkaline phosphatase-conjugated anti-mouse IgG (0.6 μg/ml) for 1 h at 37° C. Washed surfaces were exposed to 4-methylumbelliferyl phosphate (25 mg/ml in 10 mM diethanolamine, pH 9.5). The resulting fluorescence was quantified using an HTS 7000 Plus plate reader (Perkin Elmer, Foster City, Calif.) at 360 nm excitation and 465 nm emission.

rat tibia cortical bone = experiment: Rat tibia cortical bone implantation, histology and bone-implant contact histomorphometry; assay type: in vivo; details: 4 weeks
Procedure: Commercially pure titanium implants (FIG. 4) were sonicated in de-ionized water for 20 min to remove surface debris. Implants were then dipped in 4% HF for 30 sec to remove the existing oxide layer and then incubated in 35% HNO3 for 30 min at 50° C. to regenerate a new oxide coating. Samples were transferred to 1.8 N NaOH for 1 min to terminate the oxidation reaction. Implants were then rinsed and boiled in de-ionized water for 1 h. To create the bioactive coating, the implants were incubated in 20 μg/ml GFOGER peptide (SEQ ID NO:1) or type I collagen solution for 1 h. Control titanium rods were incubated in PBS.
Implantations were conducted in accordance with an IACUC-approved protocol. Both hind legs of anesthetized, mature Sprague-Dawley male rats (250-350 g) were shaved and scrubbed with alcohol. The medial aspect of the proximal tibial metaphysis was exposed through an antero-medial skin incision, leaving the medial collateral ligament intact. Using a saline-cooled drill, two defects were created in each tibia. Sterile implant rods were press fit into the defects. Periosteum was mobilized and sutured over the implantation site, and the skin was closed with wound clips. Subjects were euthanized after 4 weeks and proximal tibiae were fixed in neutral buffered formalin for histology or recovered without fixation and maintained in PBS-moistened gauze for immediate mechanical testing.
Excised tibiae were fixed in 10% neutral buffered formalin for 1 week. […] Ground sections of 50-80 μm were generated using the Exakt Grinding System™. Two longitudinal ground sections were generated per tibia, each containing two titanium plugs inserted transverse to the tibia's long axis. Sections were then stained with Sanderson's Rapid Bone Stain™ and a van Gieson counter stain. Bone implant contact (BIC) was measured as the percentage of implant's circumference that was in direct contact with bone tissue (Adobe Photoshop® CS imaging software).
To evaluate the performance of the bioactive GFOGER peptide (SEQ ID NO:1) treatment in vivo, osseointegration in a rat tibia cortical bone model was quantified using quantitative histomorphometry and pull-out mechanical testing. A cylindrical titanium implant rod with a tapered stop collar was designed (FIG. 4). The tapered head ensures that all implants are inserted into the bone at the same depth, guaranteeing uniform bone contact among treatments. Using a saline-cooled drill, two defects 2 mm in diameter were created in the medial aspect of the proximal tibial metaphysis. Implant rods consisting of GFOGER peptide (SEQ ID NO:1) functionalized or untreated (control) titanium were press fit into the cortical defects. After four weeks, the rat tibiae were harvested and evaluated for bone apposition by histological staining and mechanical integration by pull-out testing. […] Representative micrographs show 50-80 μm longitudinal ground sections of rat tibia stained with Sanderson's Rapid Bone Stain™ and van Gieson counterstain. Cells stain dark to light blue, soft tissue elements stain blue-green, and bone matrix stains yellow orange to autumn orange.
Osseointegration of implants in a rat tibia cortical bone model was quantified to evaluate the in vivo performance of the engineered titanium surfaces in bone healing. Importantly, this in vivo model provides a rigorous platform to evaluate implant coating function in a relevant orthopaedic setting. Two 2.0-mm diameter defects were drilled into the medial aspect of the proximal tibial metaphysis using a saline cooled drill. Tapered cylindrical implants (FIG. 4) of clinical-grade titanium were press-fit into the cortical defects.

Substance: GRGDG13PHSRN (GRGDGGGGGGGGGGGGGPHSRN) [RGD-PHSRN]
- ADH50 (ligand density required for half-maximal adhesion) (MC3T3-E1 cells; ligand tethered to SAMs, MC3T3-E1): 1950 fmol/cm^2
- adhesion with blocking antibodies against α5β1 integrin (MC3T3-E1 cells; maximum ligand density, normalized to unblocked controls): only slightly reduced adhesion

Substance: pFN: human plasma fibronectin obtained from Invitrogen
- HFN7.1 binding (biological activity) [1]: increased with protein coating concentration

Substance: type I collagen: native type I collagen coating on titanium implants
- bone apposition (bone implant contact, BIC) (rat tibia cortical bone; passively coated implants vs untreated titanium): COL>Ti
- histology: peri-implant bone mineral (rat tibia cortical bone; passively coated titanium implants (20 μg/ml)): Less bone mineral was visible
